Laboratory results from PubChem BioAssay AID248 (DTP/NCI, 2004).
Inconclusive results and toxic doses are left out. No stated cut-off is given here; in the data, active means T/C of 150% or more; inactive means T/C below 125%.

System: L1210 leukemia ip in BDF1 mice, survival T/C
Assay: NCI In Vivo Anticancer Drug Screen. Data for tumor model L1210 Leukemia (intraperitoneal) in B6D2F1 (BDF1) mice
Conditions: endpoint: mean survival time, higher = longer survival
In short: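 Tumor was transplanted into mice, which were then dosed with test compound or vehicle alone. Survival was recorded for each group, and the treated figure was expressed relative to the control figure.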

[1] = dose: 100.0 mg/kg/injection, schedule: Q01DX001 (ip), vehicle: saline
[2] = dose: 200.0 mg/kg/injection, schedule: Q01DX001 (ip), vehicle: saline
[3] = dose: 400.0 mg/kg/injection, schedule: Q01DX001 (ip), vehicle: saline
[4] = dose: 100.0 mg/kg/injection, schedule: Q04DX003 (ip), vehicle: saline with Tween-80
[5] = dose: 200.0 mg/kg/injection, schedule: Q04DX003 (ip), vehicle: saline with Tween-80
[6] = dose: 400.0 mg/kg/injection, schedule: Q04DX003 (ip), vehicle: saline with Tween-80
[7] = dose: 25.0 mg/kg/injection, schedule: Q04DX003 (ip), vehicle: saline
[8] = dose: 50.0 mg/kg/injection, schedule: Q01DX009 (ip), vehicle: saline with Tween-80
[9] = dose: 50.0 mg/kg/injection, schedule: Q01DX009 (ip), vehicle: saline
[10] = dose: 50.0 mg/kg/injection, schedule: Q04DX003 (ip), vehicle: saline
[11] = dose: 100.0 mg/kg/injection, schedule: Q01DX009 (ip), vehicle: saline with Tween-80
[12] = dose: 100.0 mg/kg/injection, schedule: Q04DX003 (ip), vehicle: saline
[13] = dose: 200.0 mg/kg/injection, schedule: Q04DX003 (ip), vehicle: saline
[14] = dose: 400.0 mg/kg/injection, schedule: Q04DX003 (ip), vehicle: saline
[15] = dose: 100.0 mg/kg/injection, schedule: Q01DX009 (ip), vehicle: Klucel (hydroxypropylcellulose) (HPC)
[16] = dose: 100.0 mg/kg/injection, schedule: Q04DX003 (ip), vehicle: Klucel (hydroxypropylcellulose) (HPC)
[17] = dose: 200.0 mg/kg/injection, schedule: Q01DX009 (ip), vehicle: Klucel (hydroxypropylcellulose) (HPC)
[18] = dose: 200.0 mg/kg/injection, schedule: Q01DX009 (ip), vehicle: saline with Tween-80
[19] = dose: 200.0 mg/kg/injection, schedule: Q04DX003 (ip), vehicle: Klucel (hydroxypropylcellulose) (HPC)
[20] = dose: 400.0 mg/kg/injection, schedule: Q01DX009 (ip), vehicle: Klucel (hydroxypropylcellulose) (HPC)
[21] = dose: 400.0 mg/kg/injection, schedule: Q04DX003 (ip), vehicle: Klucel (hydroxypropylcellulose) (HPC)
[22] = dose: 100.0 mg/kg/injection, schedule: Q01DX009 (ip), vehicle: saline
[23] = dose: 200.0 mg/kg/injection, schedule: Q01DX009 (ip), vehicle: saline

Measured: T/C

COc1cc(Br)c(CC(=O)c2c[nH]c3ccc(Br)cc23)cc1OC
inactive: dose: 50.0 mg/kg/injection, schedule: Q01DX001 (ip), vehicle: saline 100 % of control | [1] 94 % of control | [2] 105 % of control | [3] 94 % of control

Cc1ccccc1C(C)C
inactive: [4] 94 % of control | [5] 98 % of control | [6] 91 % of control

C/C(C/C=N/N=C(N)N)=N\N=C(N)N
inactive: dose: 15.0 mg/kg/injection, schedule: Q01DX Z (ip), vehicle: water 98 % of control | dose: 30.0 mg/kg/injection, schedule: Q01DX Z (ip), vehicle: water 96 % of control | dose: 60.0 mg/kg/injection, schedule: Q01DX Z (ip), vehicle: water 102 % of control | dose: 120.0 mg/kg/injection, schedule: Q01DX Z (ip), vehicle: water 102 % of control | dose: 120.0 mg/kg/injection, schedule: Q01DX Z (oral), vehicle: water 103 % of control | dose: 240.0 mg/kg/injection, schedule: Q01DX Z (oral), vehicle: water 100 % of control | dose: 480.0 mg/kg/injection, schedule: Q01DX Z (oral), vehicle: water 108 % of control | dose: 960.0 mg/kg/injection, schedule: Q01DX Z (oral), vehicle: water 102 % of control

CC(=O)CC(=O)CCc1ccccc1.CC(=O)CC(=O)CCc1ccccc1.[Cu]
inactive: dose: 75.0 mg/kg/injection, schedule: Q01DX001 (ip), vehicle: carboxymethylcellulose (CMC) 91 % of control

CC(CN1CCN(C)CC1)CN1c2ccccc2Sc2ccc(C(F)(F)F)cc21 (stereo not given)
inactive: dose: 3.12 mg/kg/injection, schedule: Q01DX009 (ip), vehicle: saline 101 % of control | dose: 6.25 mg/kg/injection, schedule: Q01DX009 (ip), vehicle: saline 106 % of control | dose: 12.5 mg/kg/injection, schedule: Q01DX009 (ip), vehicle: saline 113 % of control | dose: 25.0 mg/kg/injection, schedule: Q01DX009 (ip), vehicle: saline with Tween-80 111 % of control | dose: 25.0 mg/kg/injection, schedule: Q01DX009 (ip), vehicle: saline 117 % of control | [7] 101 % of control | [8] 111 % of control | [9] 98 % of control | [10] 113 % of control | [11] 96 % of control | [4] 107 % of control

CC#CC(=O)c1ccccc1
inactive: dose: 7.5 mg/kg/injection, schedule: Q04DX003 (ip), vehicle: saline 97 % of control | dose: 15.0 mg/kg/injection, schedule: Q04DX003 (ip), vehicle: saline 94 % of control | dose: 30.0 mg/kg/injection, schedule: Q04DX003 (ip), vehicle: saline 95 % of control

C[N+](C)(C)CCOC(=O)Nc1ccc(C(c2ccc(NC(=O)OCC[N+](C)(C)C)cc2)c2ccc(NC(=O)OCC[N+](C)(C)C)cc2)cc1
inactive: dose: 0.25 mg/kg/injection, schedule: Q01DX009 (ip), vehicle: saline with Tween-80 98 % of control | dose: 0.5 mg/kg/injection, schedule: Q01DX009 (ip), vehicle: saline with Tween-80 100 % of control

C(=C1/CC2CCC1C2)/c1ccccc1 (stereo not given)
inactive: [1] 98 % of control | [12] 93 % of control | [2] 103 % of control | [13] 93 % of control | [3] 101 % of control | [14] 89 % of control

c1ccc(N(c2ccccc2)c2ccccc2)cc1
inactive: [15] 102 % of control | [11] 93 % of control | [16] 91 % of control | [4] 100 % of control | [17] 91 % of control | [18] 95 % of control | [19] 95 % of control | [5] 96 % of control | [20] 98 % of control | dose: 400.0 mg/kg/injection, schedule: Q01DX009 (ip), vehicle: saline with Tween-80 95 % of control | [21] 98 % of control | [6] 90 % of control

CN1C(=O)C(Br)C(C)(Br)c2ccccc21 (stereo not given)
inactive: [1] 93 % of control | [2] 101 % of control | [3] 92 % of control

CCC1(Br)OC1=O (stereo not given)
inactive: dose: 50.0 mg/kg/injection, schedule: Q01DX009 (ip), vehicle: acetone 100 % of control | dose: 100.0 mg/kg/injection, schedule: Q01DX009 (ip), vehicle: acetone 99 % of control | dose: 100.0 mg/kg/injection, schedule: Q04DX003 (ip), vehicle: acetone 97 % of control | dose: 200.0 mg/kg/injection, schedule: Q04DX003 (ip), vehicle: acetone 98 % of control

Cc1nc(Cl)c(C#N)c(C(F)(F)F)c1N
inactive: dose: 100.0 mg/kg/injection, schedule: Q01DX Z (ip), vehicle: carboxymethylcellulose (CMC) 95 % of control

CCOC(=O)Cc1cn(C)c2ccccc12
inactive: [4] 93 % of control | [5] 91 % of control | [6] 96 % of control

CS(=O)(=O)OCCBr
inactive: dose: 12.5 mg/kg/injection, schedule: Q04DX003 (ip), vehicle: saline 88 % of control | [7] 90 % of control | [10] 87 % of control | dose: 100.0 mg/kg/injection, schedule: Q01DX001 (ip), vehicle: carboxymethylcellulose (CMC) 103 % of control

O=C(O)c1c(F)c(F)c(O)c(F)c1F
inactive: dose: 25.6 mg/kg/injection, schedule: Q04DX002 (ip), vehicle: saline with Tween-80 103 % of control | dose: 64.0 mg/kg/injection, schedule: Q04DX002 (ip), vehicle: saline with Tween-80 110 % of control | dose: 160.0 mg/kg/injection, schedule: Q04DX002 (ip), vehicle: saline with Tween-80 89 % of control | dose: 400.0 mg/kg/injection, schedule: Q04DX002 (ip), vehicle: saline with Tween-80 103 % of control

CCOC(=O)c1cnc(C)nc1C
inactive: [22] 95 % of control | [12] 103 % of control | [23] 100 % of control | [13] 98 % of control | dose: 400.0 mg/kg/injection, schedule: Q01DX009 (ip), vehicle: saline 95 % of control | [14] 98 % of control

O=C(/C=N/O)Nc1cc(Cl)c(Cl)cc1Cl
inactive: [8] 97 % of control | [11] 94 % of control | [4] 98 % of control | [18] 94 % of control | [5] 103 % of control

Cc1cccc(C)c1NC(=O)Nc1cccc(Cl)c1
inactive: [15] 93 % of control | [16] 94 % of control | [17] 93 % of control | [19] 89 % of control | [20] 92 % of control | [21] 89 % of control

CC1CCC(C(C)C)C(NCc2cc(Br)cc(Br)c2O)C1 (stereo not given)
inactive: [16] 98 % of control | [19] 92 % of control | [21] 98 % of control

O=C(NCC[N+](=O)[O-])c1ccccc1
inactive: [9] 97 % of control | [22] 93 % of control | [12] 92 % of control | [23] 95 % of control | [13] 96 % of control | [14] 100 % of control
